Counter-ions that a name gives are not always drawn. Like-named read-outs stand apart in the source and are kept apart here.

As usually defined, the IC50 is the point on the concentration scale where inhibition reaches its midpoint.

Common to all, as to format: biochemical
Test [1] addresses T1, human JAK1 (a.a. 837-1142) (Homo sapiens, UniProt P23458).
T1 construct: human JAK1 (a.a. 837-1142); His tag (N); made in house; host or cells: insect cells (baculovirus)
As to the kind of experiment: In vitro JAK kinase assay (HTRF, phosphorylation of a biotinylated peptide), JAK1. The note with it: read-out: JAK1 IC50. A digest of the protocol: (§1)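 Kinase reactions ran at room temperature for 1 h with ATP matched per isoform (JAK1 90 μM, JAK2 30 μM, JAK3 3 μM). After an EDTA stop, the phosphorylated biotin-peptide was read by HTRF using Eu-Py20 and SA-APC after 40 min binding.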
On the technique in general: Time-resolved FRET reads energy transfer from a long-lived donor to a nearby acceptor.

Test [2] deals with T2, human JAK2 (a.a. 828-1132) (Homo sapiens, UniProt O60674).
T2 construct: JAK2 (a.a. 828-1132); His tag (N); made in house; host or cells: insect cells (baculovirus)
As to the kind of experiment: In vitro JAK kinase assay (HTRF, phosphorylation of a biotinylated peptide), JAK2. Put shortly:
as §1

Test [3] deals with T3, human JAK3 (a.a. 781-1124) (Homo sapiens, UniProt P52333).
T3 construct: JAK3 (a.a. 781-1124); His tag (N); made in house; host or cells: insect cells (baculovirus)
As to the kind of experiment: In vitro JAK kinase assay (HTRF, phosphorylation of a biotinylated peptide), JAK3. A digest of the protocol: as §1

The target of a further test is TYK2 (Homo sapiens, UniProt P29597). Kind of test: TYK2 kinase inhibition (Table A1).
The target in test [4] is T4, Recombinant Human Anaplastic Lymphoma Kinase (Homo sapiens, UniProt Q9UM73).
T4 construct: purchased Invitrogen, Carlsbad, Calif
As to the kind of experiment: ALK HTRF kinase assay. A digest of the protocol:
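Readout was HTRF between a Eu-W1024 anti-phosphotyrosine antibody and streptavidin-APC bound to biotinylated peptide phosphorylated by recombinant human ALK. IC50 values came from a four-parameter logistic fit.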

[5] abbreviates: compound at a concentration of 500 nM or 1 mM (not specified), cells shown as percentage.
The mark [6] stands for this setting: method AA1 (90 μM ATP) or AA2 (1000 μM ATP), not stated per value.
Where [7] appears, read: method AA1 (30 μM ATP) or AA2 (1000 μM ATP), not stated per value.
[8] abbreviates: method AA1 (3 μM ATP) or AA2 (1000 μM ATP), not stated per value.
[9] abbreviates: compound at 500 nM or 1 mM, 90 μM ATP.
Setting [10] is: Table B1, cells without percent sign.

Sequence of TYK2 (P29597 whole entry): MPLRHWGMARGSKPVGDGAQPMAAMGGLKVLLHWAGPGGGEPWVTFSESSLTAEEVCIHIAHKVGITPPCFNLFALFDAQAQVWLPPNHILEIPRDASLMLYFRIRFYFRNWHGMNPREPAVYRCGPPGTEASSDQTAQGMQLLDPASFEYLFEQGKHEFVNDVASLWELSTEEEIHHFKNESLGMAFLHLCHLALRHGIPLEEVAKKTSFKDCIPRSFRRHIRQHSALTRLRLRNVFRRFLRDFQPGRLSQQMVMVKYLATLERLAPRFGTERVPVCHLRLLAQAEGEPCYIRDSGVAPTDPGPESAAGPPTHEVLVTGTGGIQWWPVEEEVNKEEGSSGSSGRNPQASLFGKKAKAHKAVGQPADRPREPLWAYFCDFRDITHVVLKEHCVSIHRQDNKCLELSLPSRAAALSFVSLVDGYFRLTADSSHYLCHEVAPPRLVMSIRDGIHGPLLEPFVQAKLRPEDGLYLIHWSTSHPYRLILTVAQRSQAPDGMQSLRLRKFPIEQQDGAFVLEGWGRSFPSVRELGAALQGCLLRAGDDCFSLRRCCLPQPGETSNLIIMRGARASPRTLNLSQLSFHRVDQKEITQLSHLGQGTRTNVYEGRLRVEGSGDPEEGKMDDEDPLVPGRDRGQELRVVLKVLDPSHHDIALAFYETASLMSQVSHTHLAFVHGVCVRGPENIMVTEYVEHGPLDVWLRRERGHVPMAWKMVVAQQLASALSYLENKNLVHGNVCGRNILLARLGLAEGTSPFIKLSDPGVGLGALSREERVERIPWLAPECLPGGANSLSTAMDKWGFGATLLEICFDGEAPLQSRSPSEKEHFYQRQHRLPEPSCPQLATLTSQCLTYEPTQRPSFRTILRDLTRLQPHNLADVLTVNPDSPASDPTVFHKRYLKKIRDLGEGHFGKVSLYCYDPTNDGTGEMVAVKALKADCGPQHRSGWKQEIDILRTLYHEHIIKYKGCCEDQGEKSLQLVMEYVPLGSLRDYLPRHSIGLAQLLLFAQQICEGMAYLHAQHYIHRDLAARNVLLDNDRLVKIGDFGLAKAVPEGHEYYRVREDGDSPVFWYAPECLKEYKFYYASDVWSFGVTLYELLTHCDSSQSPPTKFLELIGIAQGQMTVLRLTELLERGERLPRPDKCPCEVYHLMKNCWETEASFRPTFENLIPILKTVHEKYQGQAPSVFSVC
T3 sequence (P52333 781-1124): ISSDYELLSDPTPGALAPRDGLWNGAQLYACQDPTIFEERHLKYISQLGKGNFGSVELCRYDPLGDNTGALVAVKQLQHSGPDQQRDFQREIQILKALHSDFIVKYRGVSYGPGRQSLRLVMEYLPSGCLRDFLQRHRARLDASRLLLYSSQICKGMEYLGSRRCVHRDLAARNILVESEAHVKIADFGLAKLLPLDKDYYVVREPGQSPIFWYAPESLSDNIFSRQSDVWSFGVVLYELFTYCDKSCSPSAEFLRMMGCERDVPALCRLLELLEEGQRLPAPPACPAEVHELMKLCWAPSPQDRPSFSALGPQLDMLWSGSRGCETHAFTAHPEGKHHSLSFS
T4 sequence (Q9UM73 19-1620): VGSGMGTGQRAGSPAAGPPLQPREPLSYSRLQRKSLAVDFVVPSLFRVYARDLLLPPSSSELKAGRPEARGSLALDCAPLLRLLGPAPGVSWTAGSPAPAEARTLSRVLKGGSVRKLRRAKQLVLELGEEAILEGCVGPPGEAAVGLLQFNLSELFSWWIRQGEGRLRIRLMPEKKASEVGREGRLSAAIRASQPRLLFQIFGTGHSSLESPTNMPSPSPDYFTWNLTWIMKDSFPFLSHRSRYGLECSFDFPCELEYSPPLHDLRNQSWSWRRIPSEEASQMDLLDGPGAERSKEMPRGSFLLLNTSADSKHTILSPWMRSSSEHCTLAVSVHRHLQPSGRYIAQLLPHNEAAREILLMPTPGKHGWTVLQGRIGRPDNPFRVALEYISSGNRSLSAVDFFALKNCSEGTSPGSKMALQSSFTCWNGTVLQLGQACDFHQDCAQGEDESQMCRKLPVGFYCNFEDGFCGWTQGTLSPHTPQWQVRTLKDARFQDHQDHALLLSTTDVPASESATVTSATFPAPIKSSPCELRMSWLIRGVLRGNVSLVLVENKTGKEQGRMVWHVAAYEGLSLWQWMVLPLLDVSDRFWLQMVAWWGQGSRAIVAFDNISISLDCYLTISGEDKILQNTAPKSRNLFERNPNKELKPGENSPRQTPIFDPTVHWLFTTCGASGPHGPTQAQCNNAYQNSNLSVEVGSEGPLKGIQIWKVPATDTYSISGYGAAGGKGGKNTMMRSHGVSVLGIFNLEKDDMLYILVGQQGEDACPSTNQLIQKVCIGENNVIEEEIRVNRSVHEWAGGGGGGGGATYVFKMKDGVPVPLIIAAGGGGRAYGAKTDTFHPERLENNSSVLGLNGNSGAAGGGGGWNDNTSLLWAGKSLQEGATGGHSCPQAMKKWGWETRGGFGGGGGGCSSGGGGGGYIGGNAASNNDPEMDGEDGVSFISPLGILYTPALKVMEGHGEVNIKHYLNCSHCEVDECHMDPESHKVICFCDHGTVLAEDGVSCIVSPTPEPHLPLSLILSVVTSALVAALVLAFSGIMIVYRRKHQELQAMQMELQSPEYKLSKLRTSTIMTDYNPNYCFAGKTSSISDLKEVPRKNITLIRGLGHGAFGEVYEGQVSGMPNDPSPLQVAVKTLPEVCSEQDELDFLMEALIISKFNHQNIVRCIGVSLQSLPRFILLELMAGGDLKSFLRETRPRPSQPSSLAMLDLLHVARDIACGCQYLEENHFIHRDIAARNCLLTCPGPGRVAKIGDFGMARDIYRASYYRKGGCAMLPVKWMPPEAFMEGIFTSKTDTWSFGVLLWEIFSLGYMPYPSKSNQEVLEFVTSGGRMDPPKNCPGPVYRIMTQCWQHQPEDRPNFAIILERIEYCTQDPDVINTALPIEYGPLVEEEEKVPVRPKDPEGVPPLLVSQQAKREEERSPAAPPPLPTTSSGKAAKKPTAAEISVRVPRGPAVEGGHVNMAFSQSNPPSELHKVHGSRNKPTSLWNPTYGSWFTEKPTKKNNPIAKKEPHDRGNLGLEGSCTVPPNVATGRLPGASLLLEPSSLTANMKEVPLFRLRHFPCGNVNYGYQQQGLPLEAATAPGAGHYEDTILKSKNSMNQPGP
T1 sequence (P23458 849-1154): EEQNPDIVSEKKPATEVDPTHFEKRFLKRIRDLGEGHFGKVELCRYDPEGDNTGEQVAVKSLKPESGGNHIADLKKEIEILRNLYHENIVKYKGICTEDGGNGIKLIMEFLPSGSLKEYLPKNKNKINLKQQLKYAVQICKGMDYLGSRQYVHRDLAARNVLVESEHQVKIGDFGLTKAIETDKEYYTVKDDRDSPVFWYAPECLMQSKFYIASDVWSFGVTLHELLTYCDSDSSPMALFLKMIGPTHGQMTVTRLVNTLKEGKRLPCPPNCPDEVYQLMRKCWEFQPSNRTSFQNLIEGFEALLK
T2 sequence (O60674 828-1132): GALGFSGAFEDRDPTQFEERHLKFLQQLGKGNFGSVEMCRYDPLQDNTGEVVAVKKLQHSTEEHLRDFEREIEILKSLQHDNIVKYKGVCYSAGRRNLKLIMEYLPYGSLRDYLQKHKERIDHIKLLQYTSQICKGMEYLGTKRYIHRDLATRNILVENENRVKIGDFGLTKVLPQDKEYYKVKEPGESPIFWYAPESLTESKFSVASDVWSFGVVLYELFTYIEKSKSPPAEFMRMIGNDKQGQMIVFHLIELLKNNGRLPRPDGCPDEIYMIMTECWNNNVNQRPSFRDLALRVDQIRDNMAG

Take `O=C(NCCN1CCOCC1)Nc1ccc2cc1CCc1cccc(c1)Nc1ncc(Cl)c(n1)N2` [Example B254, N-[6-Chloro-2,4,8,22-tetraazatetracyclo[14.3.1.1(3,7).1(9,13)]docosa-1(20),3(22),4,6,9(21),10,12,16,18-nonaen-12-yl]-N′-(2-morpholin-4-ylethyl)urea bis(trifluoroacetate)]: the IC50 in test [1] (Table B1) came out at 2 nM; in test [2] (Table B1), 2.4 nM; in test [3] (Table B1), 26 nM; at TYK2 (Table B1) it was 8.2 nM. For the same compound, the “ALK % of inhibition at a concentration of 500 nM or 1 mM” value (“ALK % of inhibition” below) in test [4] (setting [5]) came out at 18%.
Regarding `CC(C)(C)OC(=O)N1CC[C@@H](NC(=O)Nc2ccc3cc2CCc2cccc(c2)Nc2ncc(Cl)c(n2)N3)C1` [Example B174, tert-Butyl (3R)-3-[({[6-chloro-2,4,8,22-tetraazatetracyclo[14.3.1.1(3,7).1(9,13)]docosa-1(20),3(22),4,6,9(21),10,12,16,18-nonaen-12-yl]amino}carbonyl)amino]pyrrolidine-1-carboxylate], the half-maximal inhibitory concentration (IC50) in test [1] (Table B1) is 15 nM; in test [2] (Table B1), 27 nM; in test [3] (Table B1), 124 nM; on TYK2 (Table B1) it was 62 nM. The “ALK % of inhibition” value in test [4] (setting [5]) turned out to be 12%.
For the compound `NCCC(=O)Nc1ccc2cc1CCc1cccc(c1)Nc1ncc(Cl)c(n1)N2` [Example A108, 3-Amino-N-[6-chloro-2,4,8,22-tetraazatetracyclo[14.3.1.1(3,7).1(9,13)]docosa-1(20),3(22),4,6,9(21),10,12,16,18-nonaen-12-yl]propanamide bis(trifluoroacetate)], the 50% inhibitory concentration (IC50) in test [1] (setting [6]) came out at 6 nM; in test [2] (setting [7]), 32 nM; in test [3] (setting [8]), 26 nM; on TYK2 it was 15 nM. For the same compound, the “ALK % of inhibition” value in test [4] (setting [9]) turned out to be 32%.
For `Clc1cnc2nc1Nc1cc(cc(CN3CCN(Cc4cc(Br)cs4)CC3)c1)CCc1cccc(c1)N2` [Example B196, 11-({4-[(4-Bromo-2-thienyl)methyl]piperazin-1-yl}methyl)-6-chloro-2,4,8,22-tetraazatetracyclo[14.3.1.1(3,7).1(9,13)]docosa-1(20),3(22),4,6,9(21),10,12,16,18-nonaene tris(trifluoroacetate)], the half-maximal inhibitory concentration (IC50) is 3.5 nM in test [1] (Table B1); 0.88 nM in test [2] (Table B1); 48 nM in test [3] (Table B1); 111 nM at TYK2 (Table B1); over 10000 nM in test [4] (setting [10]).
Consider `O=C1CCc2cccc(c2)Nc2nc(ncc2Cl)Nc2cccc1c2` [Example A5, 6-Chloro-2,4,8,23-tetraazatetracyclo[15.3.1.1(3,7).1(9,13)]tricosa-1(21),3(23),4,6,9(22),10,12,17,19-nonaen-16-one trifluoroacetate], for which the IC50 in test [1] (setting [6]) was over 100 nM; in test [2] (setting [7]), 56 nM; in test [3] (setting [8]), over 100 nM; at TYK2, over 100 nM; in test [4] (90 μM ATP), 6180 nM.
Take `CCCC(=O)Nc1ccc2cc1CCc1cccc(c1)Nc1ncc(Cl)c(n1)N2` [Example B56, N-[6-Chloro-2,4,8,22-tetraazatetracyclo[14.3.1.1(3,7).1(9,13)]docosa-1(20), 3(22),4,6,9(21),10,12,16,18-nonaen-12-yl]butanamide trifluoroacetate]: the IC50 in test [1] (Table B1) worked out at 5.9 nM; in test [2] (Table B1) it was 2 nM; in test [3] (Table B1) it was 1.5 nM; against TYK2 (Table B1), 14 nM; in test [4] (setting [10]), 720 nM.
As for `COc1ccc(N2CCN(C(=O)Nc3ccc4cc3CCc3cncc(c3)Nc3ncc(Cl)c(n3)N4)CC2)cc1` [Example B299, N-[6-Chloro-2,4,8,18,22-pentaazatetracyclo[14.3.1.1(3,7).1(9,13)]docosa-1(20),3(22),4,6,9(21),10,12,16,18-nonaen-12-yl]-4-(4-methoxyphenyl)piperazine-1-carboxamide tris(trifluoroacetate)], the IC50 in test [1] (Table B1) was 30 nM; in test [2] (Table B1), 180 nM; in test [3] (Table B1), over 400 nM; on TYK2 (Table B1) it was 82 nM. For the same compound, in test [4] (setting [5]), the “ALK % of inhibition” value was determined as 74%.
`Clc1cnc2nc1Nc1ccc(CN3CCNCC3)c(c1)CCc1cccc(c1)N2` [Example B224, 6-Chloro-12-(piperazin-1-ylmethyl)-2,4,8,22-tetraazatetracyclo[14.3.1.1(3,7).1(9,13)]docosa-1(20),3(22),4,6,9(21),10,12,16,18-nonaene tris(trifluoroacetate)]: the IC50 in test [1] (Table B1) was 19 nM; in test [2] (Table B1) it was 8.9 nM; in test [3] (Table B1) it was 41 nM; on TYK2 (Table B1), 41 nM. The “ALK % of inhibition” value in test [4] (setting [5]) stood at 28%.
For the compound `O=C(Nc1ccc2cc1CCc1cccc(c1)Nc1ncc(Cl)c(n1)N2)NC1CCCNC1` (centres unmarked) [Example B238, N-[6-Chloro-2,4,8,22-tetraazatetracyclo[14.3.1.1(3,7).1(9,13)]docosa-1(20),3(22),4,6,9(21),10,12,16,18-nonaen-12-yl]-N′-piperidin-3-ylurea bis(trifluoroacetate)], the IC50 in test [1] (Table B1) was found to be 8.1 nM; in test [2] (Table B1), 17 nM; in test [3] (Table B1), 274 nM; on TYK2 (Table B1) it was 50 nM. The “ALK % of inhibition” value in test [4] (setting [5]) was found to be 15%.
Take `O=C(Nc1cccc(N2CCOCC2)n1)Nc1ccc2cc1CCc1cccc(c1)Nc1ncc(Cl)c(n1)N2` [Example B133, N-[6-Chloro-2,4,8,22-tetraazatetracyclo[14.3.1.1(3,7).1(9,13)]docosa-1(20), 3(22),4,6,9(21),10,12,16,18-nonaen-12-yl]-N′-(6-morpholin-4-ylpyridin-2-yl)urea bis(trifluoroacetate)]: the concentration for half-maximal inhibition (IC50) in test [1] (Table B1) worked out at 44 nM; in test [2] (Table B1) it was 85 nM; in test [3] (Table B1), 376 nM; against TYK2 (Table B1), 288 nM. In addition, the “ALK % of inhibition” value in test [4] (setting [5]) was found to be 2.5%.
With `Clc1cnc2nc1Nc1cc(cc(CN3CCNCC3)c1)CCc1cccc(c1)N2` [Example B191, 6-Chloro-11-(piperazin-1-ylmethyl)-2,4,8,22-tetraazatetracyclo[14.3.1.1(3,7).1(9,13)]docosa-1(20),3(22),4,6,9(21),10,12,16,18-nonaene dihydrochloride], the half-inhibitory concentration (IC50) in test [1] (Table B1) turned out to be 93 nM; in test [2] (Table B1), 27 nM; in test [3] (Table B1), 205 nM; against TYK2 (Table B1) it was 378 nM; in test [4] (setting [10]), 1530 nM.
For `O=C(CC1CCNC1)Nc1ccc2cc1CCc1cncc(c1)Nc1ncc(Cl)c(n1)N2` (centres unmarked) [Example A105, N-[6-Chloro-2,4,8,18,22-pentaazatetracyclo[14.3.1.1(3,7).1(9,13)]docosa-1(20),3(22),4,6,9(21),10,12,16,18-nonaen-12-yl]-2-pyrrolidin-3-ylacetamide tris(trifluoroacetate)], the IC50 was found to be 29 nM in test [1] (setting [6]), 40 nM in test [2] (setting [7]), 112 nM in test [3] (setting [8]) and 44 nM against TYK2. In addition, the “ALK % of inhibition” value in test [4] (setting [9]) turned out to be 23%.
For the compound `O=C(CC1CCN(S(=O)(=O)c2ccccc2OC(F)(F)F)CC1)Nc1ccc2cc1CCc1cncc(c1)Nc1ncc(Cl)c(n1)N2` [Example A227, N-[6-Chloro-2,4,8,18,22-pentaazatetracyclo[14.3.1.1(3,7).1(9,13)]docosa-1(20),3(22),4,6,9(21),10,12,16,18-nonaen-12-yl]-2-(1-{[2-(trifluoromethoxy)phenyl]sulfonyl}piperidin-4-yl)acetamide bis(trifluoroacetate)], the IC50 was 10 nM in test [1] (setting [6]), over 400 nM in test [2] (setting [7]), over 400 nM in test [3] (setting [8]) and over 400 nM on TYK2. Besides, the “ALK % of inhibition” value in test [4] (setting [9]) was found to be 22%.

Source of the values: patent publication US8871753B2, “Macrocyclic compounds and their use as kinase inhibitors” (Incyte Corporation, priority 2008, dated 2014).
